EC50 data for 32 molecules are collected here from patent publication US20230312605A1, “PYRROLO[2,1-F][1,2,4]TRIAZINES AND PREPARATION AND USES THEREOF” (BioSplice Therapeutics, Inc., priority 2021, published 2023).

The structures appear in SMILES notation.

The assay addresses recombinant DYRK1A kinase (Homo sapiens (Human), UniProt Q13627). Description: DYRK1A kinase assay (Ser/Thr 18 peptide Z-lyte FRET assay). The class given is biochemical. The following applies: recombinant DYRK1A 0.25 µg/mL, ATP 15 µM, Ser/Thr peptide 18 4 µM, one hour at room temperature; table head prints EC50, method says IC50. In short, it runs like this:
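Z-lyte FRET format: 1 h room-temperature reaction of 15 µM ATP, 4 µM Ser/Thr 18 peptide and 0.25 µg/mL recombinant human DYRK1A, in duplicate over 11 compound concentrations up to 10 µM. IC50 was derived by non-linear regression of percent phosphorylation calculated from coumarin/fluorescein emission ratios.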

A word on the EC50: it is the concentration needed to bring the measured effect to its halfway point.

Take `CC(=O)N1CC[C@H](Nc2ncc3c(-c4ccc5nc(C)n(CC(F)F)c5n4)ccn3n2)[C@H](F)C1` [Compound 1952, 1-((3R,4S)-4-((5-(3-(2,2-Difluoroethyl)-2-methyl-3H-imidazo[4,5-b]pyridin-5-yl)pyrrolo[2,1-f] [1,2,4]triazin-2-yl)amino)-3-fluoropiperidin-1-yl)ethan-1-one]: the half-maximal effective concentration (EC50) came to 4 nM.
As for `CC(C)(F)CNc1ncc2c(-c3ccc4nccnc4c3)ccn2n1` [Compound 1352, N-(2-Fluoro-2-methylpropyl)-5-(quinoxalin-6-yl)pyrrolo[2,1-f][1,2,4]triazin-2-amine], the concentration for a half-maximal effect (EC50) stood at 27 nM.
For `Cc1nc2ccc(-c3ccn4nc(NC5CCN(CCC(F)(F)F)CC5)ncc34)nc2n1CC(F)F` [Compound 1851], the concentration for a half-maximal effect (EC50) was 11 nM.
Next, `Cc1nc2ccc(-c3ccn4nc(NC5CCOCC5)ncc34)nc2n1CC(C)(C)O` [Compound 1871, 2-Methyl-1-(2-methyl-5-(2-((tetrahydro-2H-pyran-4-yl)amino)pyrrolo[2,1-f][1,2,4]triazin-5-yl)-3H-imidazo[4,5-b]pyridin-3-yl)propan-2-ol]: 72 nM.
Turning to `C[C@]1(O)CC[C@H](Nc2ncc3c(-c4ccc5nccn5c4)ccn3n2)CC1` [Compound 1828, trans-4-((5-(Imidazo[1,2-a]pyridin-6-yl)pyrrolo[2,1-f][l,2,4]triazin-2-yl)amino) -1-methylcyclohexan-1-ol], the EC50 worked out at 10 nM.
Next, `CC(C)CNc1ncc2c(-c3ccc4nccn4c3)ccn2n1` [Compound 2, 5-(Imidazo[1,2-a]pyridin-6-yl)-N-isobutylpyrrolo[2,1-f][1,2,4]triazin-2-amine]: 41 nM; `c1cn2cc(-c3ccn4nc(NC5CC6(CNC6)C5)ncc34)cnc2n1` [Compound 1732, 5-(Imidazo[1,2-a]pyrimidin-6-yl)-N-(2-azaspiro[3.3]heptan-6-yl)pyrrolo[2,1-f][1,2,4]triazin-2-amine]: 13 nM.
Next, `Cc1nc2ccc(-c3ccn4nc(N[C@H]5CCN(C)C[C@@H]5F)ncc34)nc2n1CC(F)F` [Compound 1855, 5-(3-(2,2-Difluoroethyl)-2-methyl-3H-imidazo[4,5-b]pyridin-5-yl)-N-((3S,4S)-3-fluoro-1-methylpiperidin-4-yl)pyrrolo[2,1-f][1,2,4]triazin-2-amine]: 6 nM; `Cc1nc2ccc(-c3ccn4nc(NC5CCN(CCO)CC5)ncc34)nc2n1CC(F)F` [Compound 1852, 2-(4-((5-(3-(2,2-Difluoroethyl)-2-methyl-3H-imidazo[4,5-b]pyridin-5-yl)pyrrolo[2,1-f][1,2,4]triazin-2-yl)amino)piperidin-1-yl)ethan-1-ol]: 9 nM; `Cc1nc2ccc(-c3ccn4nc(N[C@H]5CC[C@@H](OC(F)(F)F)CC5)ncc34)nc2n1CC(F)F` [Compound 1792, 5-(3-(2,2-Difluoroethyl)-2-methyl-3H-imidazo[4,5-b]pyridin-5-yl)-N-(cis-4-(trifluoromethoxy)cyclohexyl)pyrrolo[2,1-f][1,2,4]triazin-2-amine]: 26 nM.
With `Cc1nc2ccc(-c3ccn4nc(N[C@H]5CC[C@@H](C(=O)N6CCC6)CC5)ncc34)nc2n1CC(F)F` [Compound 1896, azetidin-1-yl(cis-4-((5-(3-(2,2-difluoroethyl)-2-methyl-3H-imidazo[4,5-b]pyridin-5-yl)pyrrolo[2,1-f][1,2,4]triazin-2-yl)amino)cyclohexyl)methanone] the figure was 3 nM; with `Cc1nc2ccc(-c3ccn4nc(NCC(C)(C)F)ncc34)nc2n1C` [Compound 855, 5-(2,3-Dimethyl-3H-imidazo[4,5-b]pyridin-5-yl)-N-(2-fluoro-2-methylpropyl)pyrrolo[2,1-f][1,2,4]triazin-2-amine], 43 nM.
On to `Cc1nc2ccc(-c3ccn4nc(N[C@H]5C[C@@H](O)C5)ncc34)nc2n1CC(F)F` [Compound 1720, cis-3-((5-(3-(2,2-Difluoroethyl)-2-methyl-3H-imidazo [4,5-b]pyridin-5-yl)pyrrolo[2,1-f] [1,2,4]triazin-2-yl)amino)cyclobutan-1-ol], for which the 50% effective concentration (EC50) amounted to 5 nM.
Take `Cc1nc2ccc(-c3ccn4nc(N[C@H]5CC[C@@H](CN6CCOCC6)CC5)ncc34)nc2n1CC(F)F` [Compound 1842, 5-(3-(2,2-difluoroethyl)-2-methyl-3H-imidazo[4,5-b]pyridin-5-yl)-N-(cis-4-(morpholinomethyl)cyclohexyl)pyrrolo[2,1-f][1,2,4]triazin-2-amine]: the concentration for a half-maximal effect (EC50) was 5 nM.
Regarding `Cc1nc2ccc(-c3ccn4nc(N[C@H]5CCN(C)C(=O)C5)ncc34)nc2n1CC(F)F` [Compound 1911, (S)-4-((5-(3-(2,2-Difluoroethyl)-2-methyl-3H-imidazo [4,5-b]pyridin-5-yl)pyrrolo[2,1-f] [1,2,4]triazin-2-yl)amino)-1-methylpiperidin-2-one], the half-maximal effective concentration (EC50) worked out at 4 nM.
Take `CN1CCC(Nc2ncc3c(-c4cnc5nccn5c4)ccn3n2)CC1` [Compound 279, 5-(Imidazo[1,2-a]pyrimidin-6-yl)-N-(1-methylpiperidin-4-yl)pyrrolo[2,1-f][1,2,4]triazin-2-amine]: the EC50 stood at 49 nM.
Next, `Cc1nc2ccc(-c3ccn4nc(NC5CCOCC5)ncc34)nc2n1CC(F)F` [Compound 1132, 5-(3-(2,2-Difluoroethyl)-2-methyl-3H-imidazo[4,5-b]pyridin-5-yl)-N-(tetrahydro-2H-pyran-4-yl)pyrrolo[2,1-f][1,2,4]triazin-2-amine]: 5 nM; `C[C@]1(O)C[C@@H](Nc2ncc3c(-c4cnc5ncccc5c4)ccn3n2)C1` [Compound 1825, cis-3-((5-(1,8-Naphthyridin-3-yl)pyrrolo[2,1-f][1,2,4]triazin-2-yl)amino)-1-methylcyclobutan-1-ol]: 5 nM; `Cc1nc2ccc(-c3ccn4nc(NC5CCNCC5)ncc34)nc2n1CC(F)F` [Compound 1916, 5-(3-(2,2-difluoroethyl)-2-methyl-3H-imidazo[4,5-b]pyridin-5-yl)-N-(piperidin-4-yl)pyrrolo[2,1-f][1,2,4]triazin-2-amine]: 5 nM.
Next, `Cc1nc2ncc(-c3ccn4nc(NC5CCN(C6COC6)CC5)ncc34)cc2n1CC(F)F` [Compound 1889, 5-(1-(2,2-Difluoroethyl)-2-methyl-1H-imidazo[4,5-b]pyridin-6-yl)-N-(1-(oxetan-3-yl)piperidin-4-yl)pyrrolo[2,1-f][1,2,4]triazin-2-amine]: 7 nM; `c1cnc2ccc(-c3ccn4nc(NC5CC6(CNC6)C5)ncc34)cc2c1` [Compound 1747, 5-(Quinolin-6-yl)-N-(2-azaspiro[3.3]heptan-6-yl)pyrrolo[2,1-f][1,2,4]triazin-2-amine]: 3 nM.
With `CCO[C@H]1CC[C@@H](Nc2ncc3c(-c4cnc5ncccc5c4)ccn3n2)CC1` [Compound 1541] the figure was 3 nM; with `Cc1nc2ccc(-c3ccn4nc(NC[C@@H](C)O)ncc34)nc2n1CC(F)F` [Compound 1831, (R)-1-((5-(3-(2,2-Difluoroethyl)-2-methyl-3H-imidazo[4,5-b]pyridin-5-yl)pyrrolo [2,1-f] [1,2,4]triazin-2-yl)amino)propan-2-ol], 7 nM; with `Cc1nc2ccc(-c3ccn4nc(N[C@@H]5CCN(C)C[C@H]5F)ncc34)nc2n1CC(F)F` [Compound 1854], 8 nM.
Consider `CO[C@H]1C[C@@H](Nc2ncc3c(-c4ccc5nc(C)n(CC(F)F)c5n4)ccn3n2)C1` [Compound 1091, 5-(3-(2,2-Difluoroethyl)-2-methyl-3H-imidazo[4,5-b]pyridin-5-yl)-N-(cis-3-methoxycyclobutyl)pyrrolo[2,1-f][1,2,4]triazin-2-amine], for which the EC50 was determined as 3340 nM.
Turning to `COCCO[C@H]1C[C@@H](Nc2ncc3c(-c4cnc5nccn5c4)ccn3n2)C1` [Compound 244, 5-(Imidazo[1,2-a]pyrimidin-6-yl)-N-(cis-3-(2-methoxyethoxy)cyclobutyl) pyrrolo[2,1-f] [1,2,4]triazin-2-amine], the EC50 is 5 nM.
For the molecule `CO[C@H]1CC[C@@H](Nc2ncc3c(-c4cnc5ncccc5c4)ccn3n2)CC1` [Compound 1537, N-(cis-4-Methoxycyclohexyl)-5-(1,8-naphthyridin-3-yl)pyrrolo[2,1-f] [1,2,4]triazin-2-amine], the concentration giving a half-maximal response (EC50) amounted to 3 nM.
`Cc1nc2ncc(-c3ccn4nc(NC5CCN(C(=O)C(C)C)CC5)ncc34)cc2n1CC(F)F` [Compound 1888, 1-(4-((5-(1-(2,2-Difluoroethyl)-2-methyl-1H-imidazo[4,5-b]pyridin-6-yl)pyrrolo[2,1-f][1,2,4]triazin-2-yl)amino)piperidin-1-yl)-2-methylpropan-1-one]: the EC50 was 3 nM.
With `FC(F)(F)O[C@H]1CC[C@@H](Nc2ncc3c(-c4cnc5nccn5c4)ccn3n2)CC1` [Compound 1780, 5-(Imidazo[1,2-a]pyrimidin-6-yl)-N-(cis-4-(trifluoromethoxy)cyclohexyl) pyrrolo[2,1-f][1,2,4]triazin-2-amine] the figure was 7 nM; with `Cc1nc2ccc(-c3ccn4nc(N[C@H]5CC[C@@H](N6CCOCC6)CC5)ncc34)nc2n1CC(F)F` [Compound 1125, 5-(3-(2,2-Difluoroethyl)-2-methyl-3H-imidazo[4,5-b]pyridin-5-yl)-N-(cis-4-morpholinocyclohexyl)pyrrolo[2,1-f][1,2,4]triazin-2-amine], 18 nM; with `c1cn2cc(-c3ccn4nc(NCC5CC5)ncc34)cnc2n1` [Compound 229, N-(Cyclopropylmethyl)-5-(imidazo[1,2-a]pyrimidin-6-yl)pyrrolo[2,1-f] [1,2,4]triazin-2-amine], 9 nM.
Consider `CC(C)CN1CC2(CC(Nc3ncc4c(-c5ccc6ncccc6c5)ccn4n3)C2)C1` [Compound 1771, N-(2-isobutyl-2-azaspiro[3.3]heptan-6-yl)-5-(quinolin-6-yl)pyrrolo[2,1-f] [1,2,4]triazin-2-amine], for which the EC50 amounted to 5 nM.
